Assay results reported in article PMC10746543, “Design principles for cyclin K molecular glue degraders” (Nature Chemical Biology, 2023).
Where “and” joins values, the source holds several entries; their conditions need not be identical. Equal values may be shown once. Values belong to the compound of their own block, whether it stands above or below them.

Tests used:
CDK12–cyclin K and DDB1 = target: T1, CDK12–cyclin K and DDB1 (Homo sapiens, UniProt Q16531+Q9NYV4, K965R); experiment: TR-FRET Kd determination, quadratic fit, 50 nM or 10 nM CDK12–cyclin K; type: binding
T1 construct: His6–CDK12 (a.a. 713–1,052); full-length or beta-propeller B domain deletion (ΔBPB: a.a. 396–705 deleted) constructs of His6–DDB1ΔBPB, StrepII–Avi–DDB1, or His6–Spy–DDB1; made in house; host or cells: Trichoplusia ni High Five insect cells (baculovirus)
Source text: Equation (2) is a quadratic binding equation used for Kd determination,where Top and Bottom refer to the curve plateaus. […]

CDK9–cyclin T = target: T2, CDK9–cyclin T (Homo sapiens, UniProt P50750); experiment: Lanthascreen kinase binding assay, CDK9; conditions: for IC50: Supplementary Table 2, read-out: Lanthascreen IC50 [nM] CDK9; for Lanthascreen TR-FRET signal (raw ratio), sheet CDK9: duplicates
T2 construct: purchased Thermo Fisher
Experimental: Lanthascreen experiments were performed using commercially available reagents (Thermo Fisher) and according to the manufacturer’s instructions.

[1] = 10 nM CDK12-cyclin K + 100 nM DDB1, n = 1
[2] = compound 1.02544 nM, first titration set (r1)
[3] = compound 3.15521 nM, first titration set (r1)
[4] = compound 9.46563 nM, first titration set (r1)
[5] = compound 31.5521 nM, first titration set (r1)
[6] = compound 99.3891 nM, first titration set (r1)
[7] = compound 315.521 nM, first titration set (r1)
[8] = compound 3155.21 nM, first titration set (r1)
[9] = compound 10002 nM, first titration set (r1)
[10] = compound 0.038147 nM, second titration set (r13)
[11] = compound 0.152588 nM, second titration set (r13)
[12] = compound 0.610352 nM, second titration set (r13)
[13] = compound 9.76563 nM, second titration set (r13)
[14] = compound 39.0625 nM, second titration set (r13)
[15] = compound 156.25 nM, second titration set (r13)
[16] = compound 625 nM, second titration set (r13)
[17] = compound 2500 nM, second titration set (r13)
[18] = compound 10000 nM, second titration set (r13)

T2 sequence (P50750 whole entry): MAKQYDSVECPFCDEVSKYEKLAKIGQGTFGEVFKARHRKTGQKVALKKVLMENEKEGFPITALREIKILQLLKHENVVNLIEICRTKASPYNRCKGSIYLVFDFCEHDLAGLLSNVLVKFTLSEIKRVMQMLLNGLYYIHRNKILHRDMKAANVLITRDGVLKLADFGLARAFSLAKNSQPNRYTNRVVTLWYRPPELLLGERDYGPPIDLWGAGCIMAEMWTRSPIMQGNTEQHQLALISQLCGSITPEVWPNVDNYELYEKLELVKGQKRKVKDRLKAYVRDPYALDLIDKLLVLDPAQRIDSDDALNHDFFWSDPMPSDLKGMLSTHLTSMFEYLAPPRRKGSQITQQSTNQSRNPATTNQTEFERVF
T2 sequence (O60563 whole entry partner): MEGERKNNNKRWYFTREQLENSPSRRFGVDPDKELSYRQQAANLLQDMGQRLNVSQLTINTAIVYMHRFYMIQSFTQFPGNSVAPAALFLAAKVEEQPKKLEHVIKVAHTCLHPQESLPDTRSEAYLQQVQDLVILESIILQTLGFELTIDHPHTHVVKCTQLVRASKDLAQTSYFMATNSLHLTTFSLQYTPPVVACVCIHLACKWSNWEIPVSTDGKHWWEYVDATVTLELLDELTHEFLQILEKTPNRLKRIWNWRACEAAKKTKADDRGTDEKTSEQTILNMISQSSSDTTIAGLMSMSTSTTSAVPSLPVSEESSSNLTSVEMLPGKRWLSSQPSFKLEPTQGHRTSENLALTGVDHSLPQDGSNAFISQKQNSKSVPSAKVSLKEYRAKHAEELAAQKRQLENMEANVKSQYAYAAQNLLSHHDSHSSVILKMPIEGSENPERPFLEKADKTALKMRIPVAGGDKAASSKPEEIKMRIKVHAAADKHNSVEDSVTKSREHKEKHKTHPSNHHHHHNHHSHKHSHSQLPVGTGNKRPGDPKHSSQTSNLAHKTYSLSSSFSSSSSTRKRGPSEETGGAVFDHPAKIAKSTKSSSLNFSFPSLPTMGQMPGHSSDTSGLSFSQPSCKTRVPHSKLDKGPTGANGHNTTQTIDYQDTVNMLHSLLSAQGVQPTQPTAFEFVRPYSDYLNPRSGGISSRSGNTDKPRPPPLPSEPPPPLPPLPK
T1 sequence (Q9NYV4 713-1052 K965R): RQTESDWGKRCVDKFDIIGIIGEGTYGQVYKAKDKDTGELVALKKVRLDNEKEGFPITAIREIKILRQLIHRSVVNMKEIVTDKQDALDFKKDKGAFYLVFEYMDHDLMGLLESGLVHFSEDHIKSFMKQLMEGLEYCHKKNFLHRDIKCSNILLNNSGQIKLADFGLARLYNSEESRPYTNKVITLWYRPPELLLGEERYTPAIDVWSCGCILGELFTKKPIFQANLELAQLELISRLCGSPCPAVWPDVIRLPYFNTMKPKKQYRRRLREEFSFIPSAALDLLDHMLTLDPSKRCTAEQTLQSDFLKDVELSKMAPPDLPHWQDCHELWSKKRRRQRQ
T1 sequence (O75909 1-267 partner): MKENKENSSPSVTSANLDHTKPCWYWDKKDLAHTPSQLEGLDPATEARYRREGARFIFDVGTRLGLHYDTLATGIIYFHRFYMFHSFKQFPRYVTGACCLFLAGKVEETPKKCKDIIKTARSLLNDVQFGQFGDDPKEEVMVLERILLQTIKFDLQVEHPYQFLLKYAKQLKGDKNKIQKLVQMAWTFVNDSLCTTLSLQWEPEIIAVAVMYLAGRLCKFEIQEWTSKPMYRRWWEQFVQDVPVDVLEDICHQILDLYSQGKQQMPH
T1 sequence (Q16531 whole entry): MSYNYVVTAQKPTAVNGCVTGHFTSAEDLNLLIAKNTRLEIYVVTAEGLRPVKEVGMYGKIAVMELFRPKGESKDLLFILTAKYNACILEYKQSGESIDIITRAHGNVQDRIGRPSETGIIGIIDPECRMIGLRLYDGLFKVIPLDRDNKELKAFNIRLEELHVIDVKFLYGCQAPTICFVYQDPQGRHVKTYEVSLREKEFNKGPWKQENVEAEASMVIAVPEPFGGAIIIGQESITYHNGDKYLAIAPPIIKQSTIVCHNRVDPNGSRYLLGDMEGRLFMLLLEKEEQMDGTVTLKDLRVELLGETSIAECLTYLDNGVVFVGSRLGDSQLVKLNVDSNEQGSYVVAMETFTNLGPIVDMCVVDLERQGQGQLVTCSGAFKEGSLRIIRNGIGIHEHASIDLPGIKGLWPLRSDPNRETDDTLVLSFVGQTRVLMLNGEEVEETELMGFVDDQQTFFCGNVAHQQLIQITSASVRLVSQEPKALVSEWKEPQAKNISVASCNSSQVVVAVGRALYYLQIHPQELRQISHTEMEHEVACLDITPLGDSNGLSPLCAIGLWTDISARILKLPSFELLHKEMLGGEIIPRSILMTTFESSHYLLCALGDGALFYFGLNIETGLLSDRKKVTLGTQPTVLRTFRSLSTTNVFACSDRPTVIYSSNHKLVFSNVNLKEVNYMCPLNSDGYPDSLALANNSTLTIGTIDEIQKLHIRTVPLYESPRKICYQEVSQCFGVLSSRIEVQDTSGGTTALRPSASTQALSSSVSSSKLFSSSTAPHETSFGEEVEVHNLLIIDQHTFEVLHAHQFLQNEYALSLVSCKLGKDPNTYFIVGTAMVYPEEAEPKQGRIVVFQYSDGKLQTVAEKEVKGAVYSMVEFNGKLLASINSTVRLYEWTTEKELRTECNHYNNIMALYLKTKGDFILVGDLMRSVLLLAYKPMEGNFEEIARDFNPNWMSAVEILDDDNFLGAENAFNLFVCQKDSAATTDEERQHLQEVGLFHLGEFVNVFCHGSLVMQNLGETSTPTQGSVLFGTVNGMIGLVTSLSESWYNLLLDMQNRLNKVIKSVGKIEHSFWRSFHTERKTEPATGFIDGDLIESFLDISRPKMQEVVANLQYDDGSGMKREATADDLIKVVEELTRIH

Kd (CDK12–cyclin K and DDB1; [1]): 0.2 ± 0.3 nM
TR-FRET Kd* (CDK12–cyclin K and DDB1; [1]): subnanomolar range
TR-FRET signal (CDK12–cyclin K and DDB1; 10 nM CDK12-cyclin K, compound 0.468 nM): 0.1115
TR-FRET signal (CDK12–cyclin K and DDB1; 10 nM CDK12-cyclin K, compound 2.16 nM): 0.172
TR-FRET signal (CDK12–cyclin K and DDB1; 10 nM CDK12-cyclin K, compound 3.6 nM): 0.3284
TR-FRET signal (CDK12–cyclin K and DDB1; 10 nM CDK12-cyclin K, compound 7.92 nM): 0.4288
TR-FRET signal (CDK12–cyclin K and DDB1; 10 nM CDK12-cyclin K, compound 15.84 nM): 0.4992
TR-FRET signal (CDK12–cyclin K and DDB1; 10 nM CDK12-cyclin K, compound 30.96 nM): 0.5275
TR-FRET signal (CDK12–cyclin K and DDB1; 10 nM CDK12-cyclin K, compound 62.6399 nM): 0.5247
TR-FRET signal (CDK12–cyclin K and DDB1; 10 nM CDK12-cyclin K, compound 125.279 nM): 0.5329
TR-FRET signal (CDK12–cyclin K and DDB1; 10 nM CDK12-cyclin K, compound 244.8 nM): 0.5439
TR-FRET signal (CDK12–cyclin K and DDB1; 10 nM CDK12-cyclin K, compound 993.6 nM): 0.5387
TR-FRET signal (CDK12–cyclin K and DDB1; 10 nM CDK12-cyclin K, compound 2001.6 nM): 0.5235
Kd (CDK12–cyclin K and DDB1; 50 nM CDK12-cyclin K + 100 nM DDB1, n = 1): 2 ± 1 nM
TR-FRET signal (CDK12–cyclin K and DDB1; 50 nM CDK12-cyclin K, compound 0.468 nM): 0.2245
TR-FRET signal (CDK12–cyclin K and DDB1; 50 nM CDK12-cyclin K, compound 2.16 nM): 0.505
TR-FRET signal (CDK12–cyclin K and DDB1; 50 nM CDK12-cyclin K, compound 3.6 nM): 0.4237
TR-FRET signal (CDK12–cyclin K and DDB1; 50 nM CDK12-cyclin K, compound 7.92 nM): 0.5318
TR-FRET signal (CDK12–cyclin K and DDB1; 50 nM CDK12-cyclin K, compound 15.84 nM): 0.9093
TR-FRET signal (CDK12–cyclin K and DDB1; 50 nM CDK12-cyclin K, compound 30.96 nM): 1.797
TR-FRET signal (CDK12–cyclin K and DDB1; 50 nM CDK12-cyclin K, compound 62.6399 nM): 2.967
TR-FRET signal (CDK12–cyclin K and DDB1; 50 nM CDK12-cyclin K, compound 125.279 nM): 3.159
TR-FRET signal (CDK12–cyclin K and DDB1; 50 nM CDK12-cyclin K, compound 244.8 nM): 3.183
TR-FRET signal (CDK12–cyclin K and DDB1; 50 nM CDK12-cyclin K, compound 993.6 nM): 3.081
TR-FRET signal (CDK12–cyclin K and DDB1; 50 nM CDK12-cyclin K, compound 2001.6 nM): 3.197
IC50 (CDK9–cyclin T): 557 nM
Lanthascreen TR-FRET signal (raw ratio), sheet CDK9 (CDK9–cyclin T; [2]): 0.01409 and 0.01452
Lanthascreen TR-FRET signal (raw ratio), sheet CDK9 (CDK9–cyclin T; [3]): 0.01533 and 0.01444
Lanthascreen TR-FRET signal (raw ratio), sheet CDK9 (CDK9–cyclin T; [4]): 0.01086 and 0.01492
Lanthascreen TR-FRET signal (raw ratio), sheet CDK9 (CDK9–cyclin T; [5]): 0.01278 and 0.01412
Lanthascreen TR-FRET signal (raw ratio), sheet CDK9 (CDK9–cyclin T; [6]): 0.01498 and 0.0129
Lanthascreen TR-FRET signal (raw ratio), sheet CDK9 (CDK9–cyclin T; [7]): 0.01059 and 0.008471
Lanthascreen TR-FRET signal (raw ratio), sheet CDK9 (CDK9–cyclin T; [8]): 0.004926 and 0.00557
Lanthascreen TR-FRET signal (raw ratio), sheet CDK9 (CDK9–cyclin T; [9]): 0.002868 and 0.004276
SMILES: Cc1cc2nc(CNc3nc(N4CCN(C)CC4)nc4c(Br)cnn34)[nH]c2cc1C [DS73, reference compound]

IC50 (CDK9–cyclin T): 1110 nM
Lanthascreen TR-FRET signal (raw ratio), sheet CDK9 (CDK9–cyclin T; [10]): 0.01383 and 0.01355
Lanthascreen TR-FRET signal (raw ratio), sheet CDK9 (CDK9–cyclin T; [11]): 0.0139 and 0.01441
Lanthascreen TR-FRET signal (raw ratio), sheet CDK9 (CDK9–cyclin T; [12]): 0.01347 and 0.01396
Lanthascreen TR-FRET signal (raw ratio), sheet CDK9 (CDK9–cyclin T; [2]): 0.01429 and 0.01561
Lanthascreen TR-FRET signal (raw ratio), sheet CDK9 (CDK9–cyclin T; [3]): 0.01467 and 0.01402
Lanthascreen TR-FRET signal (raw ratio), sheet CDK9 (CDK9–cyclin T; [4]): 0.01439 and 0.01388
Lanthascreen TR-FRET signal (raw ratio), sheet CDK9 (CDK9–cyclin T; [13]): 0.01427 and 0.01339
Lanthascreen TR-FRET signal (raw ratio), sheet CDK9 (CDK9–cyclin T; [5]): 0.01459 and 0.0177
Lanthascreen TR-FRET signal (raw ratio), sheet CDK9 (CDK9–cyclin T; [14]): 0.01365 and 0.01337
Lanthascreen TR-FRET signal (raw ratio), sheet CDK9 (CDK9–cyclin T; [6]): 0.01319 and 0.01787
Lanthascreen TR-FRET signal (raw ratio), sheet CDK9 (CDK9–cyclin T; [15]): 0.01319 and 0.01335
Lanthascreen TR-FRET signal (raw ratio), sheet CDK9 (CDK9–cyclin T; [7]): 0.01154 and 0.01497
Lanthascreen TR-FRET signal (raw ratio), sheet CDK9 (CDK9–cyclin T; [16]): 0.01033 and 0.01039
Lanthascreen TR-FRET signal (raw ratio), sheet CDK9 (CDK9–cyclin T; [17]): 0.00843 and 0.008233
Lanthascreen TR-FRET signal (raw ratio), sheet CDK9 (CDK9–cyclin T; [8]): 0.01003 and 0.01129
Lanthascreen TR-FRET signal (raw ratio), sheet CDK9 (CDK9–cyclin T; [18]): 0.006379 and 0.005879
Lanthascreen TR-FRET signal (raw ratio), sheet CDK9 (CDK9–cyclin T; [9]): 0.009746 and 0.009366
SMILES: O=C(CSc1nnc2c(n1)[nH]c1ccccc12)Nc1ccc(Cl)cn1 [dCeMM2]

IC50 (CDK9–cyclin T): 3020 nM
Lanthascreen TR-FRET signal (raw ratio), sheet CDK9 (CDK9–cyclin T; [10]): 0.01294 and 0.01365
Lanthascreen TR-FRET signal (raw ratio), sheet CDK9 (CDK9–cyclin T; [11]): 0.0141 and 0.01339
Lanthascreen TR-FRET signal (raw ratio), sheet CDK9 (CDK9–cyclin T; [12]): 0.0143 and 0.01462
Lanthascreen TR-FRET signal (raw ratio), sheet CDK9 (CDK9–cyclin T; [2]): 0.01545 and 0.0134
Lanthascreen TR-FRET signal (raw ratio), sheet CDK9 (CDK9–cyclin T; [3]): 0.01353 and 0.01504
Lanthascreen TR-FRET signal (raw ratio), sheet CDK9 (CDK9–cyclin T; [4]): 0.01222 and 0.01325
Lanthascreen TR-FRET signal (raw ratio), sheet CDK9 (CDK9–cyclin T; [13]): 0.01396 and 0.01385
Lanthascreen TR-FRET signal (raw ratio), sheet CDK9 (CDK9–cyclin T; [5]): 0.0135 and 0.01525
Lanthascreen TR-FRET signal (raw ratio), sheet CDK9 (CDK9–cyclin T; [14]): 0.0129 and 0.01348
Lanthascreen TR-FRET signal (raw ratio), sheet CDK9 (CDK9–cyclin T; [6]): 0.01289 and 0.01231
Lanthascreen TR-FRET signal (raw ratio), sheet CDK9 (CDK9–cyclin T; [15]): 0.01372 and 0.01352
Lanthascreen TR-FRET signal (raw ratio), sheet CDK9 (CDK9–cyclin T; [7]): 0.01199 and 0.01288
Lanthascreen TR-FRET signal (raw ratio), sheet CDK9 (CDK9–cyclin T; [16]): 0.01085 and 0.01132
Lanthascreen TR-FRET signal (raw ratio), sheet CDK9 (CDK9–cyclin T; [17]): 0.0085 and 0.007435
Lanthascreen TR-FRET signal (raw ratio), sheet CDK9 (CDK9–cyclin T; [8]): 0.006467 and 0.007084
Lanthascreen TR-FRET signal (raw ratio), sheet CDK9 (CDK9–cyclin T; [18]): 0.00463 and 0.004475
Lanthascreen TR-FRET signal (raw ratio), sheet CDK9 (CDK9–cyclin T; [9]): 0.0026 and 0.00423
SMILES: O=C(CSc1nc2ccccc2[nH]1)Nc1ccc(Cl)cn1 [dCeMM3]

IC50 (CDK9–cyclin T): 2460 nM
Lanthascreen TR-FRET signal (raw ratio), sheet CDK9 (CDK9–cyclin T; [10]): 0.01401 and 0.01443
Lanthascreen TR-FRET signal (raw ratio), sheet CDK9 (CDK9–cyclin T; [11]): 0.01297 and 0.01342
Lanthascreen TR-FRET signal (raw ratio), sheet CDK9 (CDK9–cyclin T; [12]): 0.01434 and 0.01401
Lanthascreen TR-FRET signal (raw ratio), sheet CDK9 (CDK9–cyclin T; [2]): 0.01509 and 0.01456
Lanthascreen TR-FRET signal (raw ratio), sheet CDK9 (CDK9–cyclin T; [3]): 0.01409 and 0.01238
Lanthascreen TR-FRET signal (raw ratio), sheet CDK9 (CDK9–cyclin T; [4]): 0.01419 and 0.01391
Lanthascreen TR-FRET signal (raw ratio), sheet CDK9 (CDK9–cyclin T; [13]): 0.01424 and 0.01466
Lanthascreen TR-FRET signal (raw ratio), sheet CDK9 (CDK9–cyclin T; [5]): 0.01363 and 0.01274
Lanthascreen TR-FRET signal (raw ratio), sheet CDK9 (CDK9–cyclin T; [14]): 0.01378 and 0.01422
Lanthascreen TR-FRET signal (raw ratio), sheet CDK9 (CDK9–cyclin T; [6]): 0.01334 and 0.01404
Lanthascreen TR-FRET signal (raw ratio), sheet CDK9 (CDK9–cyclin T; [15]): 0.01404 and 0.01353
Lanthascreen TR-FRET signal (raw ratio), sheet CDK9 (CDK9–cyclin T; [7]): 0.01521 and 0.01465
Lanthascreen TR-FRET signal (raw ratio), sheet CDK9 (CDK9–cyclin T; [16]): 0.01264 and 0.01274
Lanthascreen TR-FRET signal (raw ratio), sheet CDK9 (CDK9–cyclin T; [17]): 0.01019 and 0.009296
Lanthascreen TR-FRET signal (raw ratio), sheet CDK9 (CDK9–cyclin T; [8]): 0.008036 and 0.01025
Lanthascreen TR-FRET signal (raw ratio), sheet CDK9 (CDK9–cyclin T; [18]): 0.006352 and 0.006436
Lanthascreen TR-FRET signal (raw ratio), sheet CDK9 (CDK9–cyclin T; [9]): 0.007034 and 0.007071
SMILES: Cc1ccc(C(=O)N2CSCC2C(=O)Nc2ncc(C)s2)o1 (stereo not shown) [dCeMM4]
